Laboratory results published in publication PMC10729960, “Developing novel antimicrobials by combining cancer chemotherapeutics with bacterial DNA repair inhibitors” (PLOS Pathogens, 2023).

Columns and labels:
Type in all cases: biochemical
[1] = biological target: T1, UvrABC (UvrA, UvrB and UvrC) (Escherichia coli, UniProt P0A698+P0A8F8+P0A8G0); test: fluorescence-based DNA incision assay (Cy5 / black hole quencher); conditions: 37 °C, 200 nM UvrA, 400 nM UvrB, 200 nM UvrC, 1 mM ATP, 100 nM fluorescein-adducted DNA, pH 7.5, compound concentration not given for this assay
T1 construct: purified proteins; UvrB and UvrC with C-terminal linker, AviTag, TEV site and 6xHis

UvrA [2] = biological target: T2, UvrA (Escherichia coli, UniProt P0A698); test: NADH-coupled ATPase assay (pyruvate kinase / lactate dehydrogenase); conditions: without DNA; 50 nM UvrA, 20 μM compound, 1 mM ATP, 10 mM MgCl2, pH 7.5, room temperature; allosteric site only from docking
T2 sequence (P0A698 1-940): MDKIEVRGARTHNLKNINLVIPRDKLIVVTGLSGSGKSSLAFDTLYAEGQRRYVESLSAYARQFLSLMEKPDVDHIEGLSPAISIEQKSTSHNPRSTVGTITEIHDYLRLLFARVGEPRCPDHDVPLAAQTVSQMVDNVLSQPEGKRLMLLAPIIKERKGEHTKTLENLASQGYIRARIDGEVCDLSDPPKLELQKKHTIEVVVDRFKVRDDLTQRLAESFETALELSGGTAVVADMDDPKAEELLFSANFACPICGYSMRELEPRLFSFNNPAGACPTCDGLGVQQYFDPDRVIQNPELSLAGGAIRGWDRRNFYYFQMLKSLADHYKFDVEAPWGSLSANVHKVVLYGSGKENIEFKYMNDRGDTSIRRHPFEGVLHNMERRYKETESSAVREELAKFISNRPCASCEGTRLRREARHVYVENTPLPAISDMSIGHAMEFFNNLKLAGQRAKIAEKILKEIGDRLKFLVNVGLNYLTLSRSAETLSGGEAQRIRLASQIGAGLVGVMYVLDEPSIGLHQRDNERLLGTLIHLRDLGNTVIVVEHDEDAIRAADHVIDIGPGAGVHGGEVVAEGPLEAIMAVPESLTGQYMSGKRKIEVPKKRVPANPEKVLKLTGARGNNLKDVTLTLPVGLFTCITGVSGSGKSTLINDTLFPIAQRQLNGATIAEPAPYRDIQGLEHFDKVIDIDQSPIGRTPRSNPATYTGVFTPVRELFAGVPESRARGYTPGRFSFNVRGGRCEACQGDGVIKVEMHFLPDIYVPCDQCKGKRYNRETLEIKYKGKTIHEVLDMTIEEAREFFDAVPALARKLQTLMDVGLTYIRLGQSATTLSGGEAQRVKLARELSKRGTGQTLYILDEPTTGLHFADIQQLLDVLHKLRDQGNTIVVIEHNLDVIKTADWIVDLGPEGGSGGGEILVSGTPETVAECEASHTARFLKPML

UvrA [3] = biological target: T2, UvrA; test: as above; conditions: with and without DNA; 50 nM UvrA, 20 μM compound, 1 mM ATP, 10 mM MgCl2, pH 7.5, room temperature; DNA intercalator
UvrA [4] = biological target: T2, UvrA; test: as above; conditions: 1 mM ATP, 50 nM UvrA, 10 mM MgCl2, pH 7.5, room temperature

T1 sequence (P0A8G0 whole entry, one chain of several): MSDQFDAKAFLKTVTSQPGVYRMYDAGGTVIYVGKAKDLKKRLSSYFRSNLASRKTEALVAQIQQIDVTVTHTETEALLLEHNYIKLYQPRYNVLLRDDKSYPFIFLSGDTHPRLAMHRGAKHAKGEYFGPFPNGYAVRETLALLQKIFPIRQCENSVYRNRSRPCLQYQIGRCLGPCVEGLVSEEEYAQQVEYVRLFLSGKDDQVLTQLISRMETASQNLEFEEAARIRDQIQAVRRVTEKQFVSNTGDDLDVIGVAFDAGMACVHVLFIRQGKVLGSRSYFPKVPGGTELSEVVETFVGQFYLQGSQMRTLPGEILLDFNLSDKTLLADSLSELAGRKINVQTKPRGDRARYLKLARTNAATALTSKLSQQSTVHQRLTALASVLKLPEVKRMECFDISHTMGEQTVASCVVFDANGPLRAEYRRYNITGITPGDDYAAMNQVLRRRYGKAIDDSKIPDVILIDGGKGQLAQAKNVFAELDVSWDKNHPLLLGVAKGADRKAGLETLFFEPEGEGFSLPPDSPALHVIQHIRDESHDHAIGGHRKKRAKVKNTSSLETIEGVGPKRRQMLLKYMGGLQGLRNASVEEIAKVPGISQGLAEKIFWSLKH
T1 sequence (P0A8F8 2-673, one chain of several): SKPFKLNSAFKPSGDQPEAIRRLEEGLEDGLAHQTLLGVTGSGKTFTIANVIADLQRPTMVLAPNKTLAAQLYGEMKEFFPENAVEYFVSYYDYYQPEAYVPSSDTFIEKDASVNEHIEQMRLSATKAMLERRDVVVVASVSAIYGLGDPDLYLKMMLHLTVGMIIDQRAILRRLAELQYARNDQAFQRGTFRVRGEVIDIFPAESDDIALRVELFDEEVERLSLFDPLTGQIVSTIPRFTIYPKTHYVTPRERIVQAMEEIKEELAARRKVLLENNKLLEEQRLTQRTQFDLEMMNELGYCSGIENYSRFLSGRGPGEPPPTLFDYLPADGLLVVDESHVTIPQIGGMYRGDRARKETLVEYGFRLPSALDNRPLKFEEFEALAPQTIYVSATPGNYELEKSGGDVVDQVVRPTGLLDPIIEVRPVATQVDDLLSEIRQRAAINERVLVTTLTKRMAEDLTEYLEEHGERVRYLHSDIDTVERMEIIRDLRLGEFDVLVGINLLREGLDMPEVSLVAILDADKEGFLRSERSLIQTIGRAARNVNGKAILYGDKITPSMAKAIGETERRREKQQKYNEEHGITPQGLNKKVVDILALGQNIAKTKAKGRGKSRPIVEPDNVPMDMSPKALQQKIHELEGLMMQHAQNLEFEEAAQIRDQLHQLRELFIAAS

| Structure (SMILES) | % reduction of ATPase at 20 μM (UvrA [2]) [%] | % ATPase activity at 20 μM (UvrA [3]) | further results |
| --- | --- | --- | --- |
| Nc1c2ccccc2nc2ccccc12 [9-aminoacridine] | – | – | max inhibition ([1]; 2.5 h, possibly acts through DNA, target subunit unk): ~ 49% |
| C/C=C(/C(=C/C)c1ccc(O)cc1)c1ccc(O)cc1 [Dienestrol] | > 70 | – | max inhibition ([1]; 16 h): ~ 25% |
| O=C1c2c(O)ccc(O)c2C(=O)c2c(NCCNCCO)ccc(NCCNCCO)c21 [Mitoxantrone] | – | both Mitoxantrone and Pirarubicin directly inhibit UvrA’s ATPase activity | max inhibition ([1]; 16 h, DNA intercalator): ~ 82% |
| N[C@@H](Cc1cc(I)c(Oc2cc(I)c(O)c(I)c2)c(I)c1)C(=O)O [L-thyroxine] | > 70 | – | – |
| Nc1ncnc2c1ncn2[C@@H]1O[C@H](COP(=O)(O)OP(=O)(O)OP(=O)(O)O)[C@@H](O)[C@H]1O [ATP] | – | – | NADH-coupled ATPase assay (pyruvate kinase / lactate dehydrogenase) (UvrA [4]): We directly measured the rate of ATP turnover for purified UvrA |
| COc1cccc2c1C(=O)c1c(O)c3c(c(O)c1C2=O)C[C@@](O)(C(=O)CO)C[C@@H]3O[C@H]1C[C@H](N)[C@H](O[C@@H]2CCCCO2)[C@H](C)O1 [Pirarubicin] | – | Pirarubicin, Mitoxantrone, Dienestrol and L-thyroxine all inhibited the ATPase | – |
